Measurements as given in US20140228274A1, “Liquid Detergent Composition” (priority 2011, published 2014).

Tests used:
[1] = molecular target: T1, Savinase 16L (subtilisin) (Lederbergia lenta, UniProt P29600); test: Storage stability in liquid detergent: residual protease activity (hydrolysis of N,N-dimethylcasein at 40° C., pH 8.3); format: biochemical; conditions: for Residual protease activity, 4 weeks at 35° C. (% of initial activity): inhibitor dosage 'yes'
T1 construct: purchased Novozymes Savinase 16L
T1 sequence (P29600 1-269): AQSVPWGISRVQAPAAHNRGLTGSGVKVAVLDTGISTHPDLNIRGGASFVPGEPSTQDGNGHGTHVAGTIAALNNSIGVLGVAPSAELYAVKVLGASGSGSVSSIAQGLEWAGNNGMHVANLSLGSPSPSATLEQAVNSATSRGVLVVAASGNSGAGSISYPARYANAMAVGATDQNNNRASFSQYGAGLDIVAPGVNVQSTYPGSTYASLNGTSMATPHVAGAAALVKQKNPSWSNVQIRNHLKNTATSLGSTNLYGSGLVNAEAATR
Method: (§1) General experimental details: Detergents containing Savinase 16L and either X—B^1—B^0—H or X—B^1—NH—CHR—CHOH—SO3Na; or Savinase 16L; are placed in closed glasses at −18° C.; 35° C. and 40° C. Residual activities of protease and lipase are measured after different times using standard analytical methods (protease by hydrolysis of N,N-dimethylcasein at 40° C., pH 8.3 and lipase by hydrolysis of pNp-valerate at 40° C., pH 7.7). The inhibitor and protease may also be added individually to the detergent.
(§2) As an example of liquid detergents with a stabilized subtilisin formulation, the compositions described in Table 1 were made.
(§3) As another example of detergents with a stabilized subtilisin formulation, the compositions described in Table 3 were made.

Lipex 100L (lipase) = test: Storage stability in liquid detergent: residual lipase activity (hydrolysis of pNp-valerate at 40° C., pH 7.7); format: biochemical
Method: as §1, §2, §3

[2] = Detergent A, no Na formate, inhibitor 21 ppm (peptide aldehydes) or 26 ppm (hydrosulfite adduct) in detergent
[3] = Detergent B, 2% Na formate, inhibitor 21 ppm (peptide aldehydes) or 26 ppm (hydrosulfite adduct) in detergent
[4] = Detergent B, 2% Na formate alone, no inhibitor

Compound | Residual protease activity, 2 weeks at 40° C. (% of initial activity) [1, 2] [%] | Residual protease activity, 2 weeks at 40° C. (% of initial activity) [1, 3] [%] | Residual lipase activity, 2 weeks at 35° C. (% of initial activity) (Lipex 100L (lipase); [2]) [%] | Residual lipase activity, 2 weeks at 35° C. (% of initial activity) (Lipex 100L (lipase); [3]) [%] | Residual protease activity, 4 weeks at 35° C. (% of initial activity) ([1]; Detergent E (12% LAS, pH 8.4), no Na formate) [%] | Residual protease activity, 4 weeks at 35° C. (% of initial activity) ([1]; Detergent F (12% LAS, pH 8.4), 2% Na formate) [%] | Residual lipase activity, 2 weeks at 35° C. (% of initial activity) (Lipex 100L (lipase); Detergent E (12% LAS, pH 8.4), no Na formate, inhibitor dosage 'yes') [%] | Residual lipase activity, 2 weeks at 35° C. (% of initial activity) (Lipex 100L (lipase); Detergent F (12% LAS, pH 8.4), 2% Na formate, inhibitor dosage 'yes') [%] | Residual protease activity, 2 weeks at 40° C. (% of initial activity) [1, 4] [%] | Residual lipase activity, 2 weeks at 35° C. (% of initial activity) (Lipex 100L (lipase); [4]) [%]
Cbz-VAL-H | 2 | 49 | 13 | 30 |  |  |  |  |  | 
Cbz-GAY-H | 5 | 71 | 16 | 32 | 43 | 88 | 14 | 27 |  | 
O=C[O-].[Na+] [Na formate, sodium formate] |  |  |  |  |  |  |  |  | 1 | 3
